{"source": "patent US9517221B2", "about": "“(2R)-2-propyloctanoic acid for functional brain disease” (ONO PHARMACEUTICAL CO., LTD., priority 2006, dated 2016)", "key": {"[1]": {"system": "olfactory bulbectomized rats", "test": "Anxiolytic behavior on elevated plus maze of olfactory bulbectomized rats", "format": "in vivo, rat", "settings": "dose 10 mg/kg once a day for 8 days; 5 minutes test 1 hour after 8 days administration", "description": "SPF rats (Crlj: WI) were used in the test. The animal for olfactory bulbectomy was anesthetized with pentobarbital sodium (Nembutal R Injection, Dainippon Pharmaceutical, dose: 1 mL/kg (intraperitoneal administration)), and the head was fixed using a brain stereotaxic apparatus (ASI Instruments, Inc., NARISHIGE). After incising the head skin, holes are opened at right and left olfactory bulb regions of the skull using a dental drill (manufactured by […]), and the right and left olfactory bulbs were removed by sucking them using an aspirator connected to a tip-removed oral sonde, and the head skin was stitched thereafter. In this connection, in the case of the animals for sham-operation, anesthesia, brain fixation and head skin incision were carried out in the same manner as in the animals for olfactory bulbectomy, holes are opened at right and left olfactory bulb regions of the skull and the head skin was stitched without carrying out suction removal of the olfactory bulbs. The rats after olfactory bulbectomy were put into a series of five stainless steel cages, each of which was partitioned into two parts with an acrylic board for individual rearing space, and individually reared under a dark condition. The rats were subjected to the following tests of (2) and (3). • (a) Sham-operation group (12 animals); • (b) Vehicle control group (12 animals); • (c) 3 mg/kg administration group (12 animals) of (2R)-2-propyloctanoic acid; • (d) 10 mg/kg administration group (12 animals) of (2R)-2-propyloctanoic acid; • (e) 10 mg/kg administration group (12 animals) of Milnacipran hydrochloride. [Drug Administration] As shown below, drug solution or vehicle was administered once a day for 8 days, a total of 8 times, at a respective liquid dose of 5 mL/kg. • (a) Sham-operation group: vehicle (0.1% by volume Tween 80) aqueous solution; • (b) Vehicle control group: vehicle (0.1% by volume Tween 80) aqueous solution; • (c) 3 mg/kg administration group of (2R)-2-propyloctanoic acid: a drug solution in which (2R)-2-propyloctanoic acid was prepared to be 0.6 mg/mL with the vehicle; • (d) 10 mg/kg administration group of (2R)-2-propyloctanoic acid: a drug solution in which (2R)-2-propyloctanoic acid was prepared to be 2.0 mg/mL with the vehicle; • (e) 10 mg/kg administration group of milnacipran hydrochloride: a drug solution in which Milnacipran hydrochloride was prepared to be 2.3 mg/mL with the vehicle (Milnacipran itself is included in 2.0 mg/mL). (2) Examination of the Activity for Hyperemotional Reactivity <Evaluation Method> Evaluation of the anxiolytic behavior on an elevated plus maze was carried out once per animal for 5 minutes from 1 hour to 1 hour and 10 minutes after 8 days of the administration, in accordance with the following method. Each animal was softly put on a platform of elevated plus maze which is described later, toward one of the open arms. Thereafter, behavior of the animal was shot using a video camera (CCD-DC430, SONY) set up the elevated plus maze, and the images were analyzed by a video image behavior analyzing device (Etho Vision, manufactured by Noldus). Additionally, the images from the video camera were recorded and handled as reference data. In this connection, when the animal fell, it was regarded as staying on the open arm, and the animal was quickly returned to the place or the open arm where it was present just before the falling. The evaluation was carried out on the respective items shown by A to H (A: frequency of approach to the open arm, B: frequency of approach to the closed arm, C: frequency of approach to the platform, D: stayed time (second) on the open arm, E: stayed time (second) on the closed arm, F: stayed time (second) on the platform, G: defecation frequency on the open arm, platform and closed arm, and H: urination frequency on the open arm, platform and closed arm), by measuring A to F using the video image behavior analyzing device, and by measuring G and H after completion of the measurement. […]"}, "[2]": {"system": "olfactory bulbectomized rats", "test": "Hyperemotional reactivity (hyperemotional score) of olfactory bulbectomized rats", "format": "in vivo, rat", "parameters": "key to Hyperemotional score (mean ± S. E.), One day administration, Before administration / Hyperemotional score (mean ± S. E.), One day administration, After administration / Hyperemotional score (mean ± S. E.), Seven days administration, Before administration / Hyperemotional score (mean ± S. E.), Seven days administration, After administration: irritability score per Gomita et al. (1983) criteria", "description": "SPF rats (Crlj: WI) were used in the test. The animal for olfactory bulbectomy was anesthetized with pentobarbital sodium (Nembutal R Injection, Dainippon Pharmaceutical, dose: 1 mL/kg (intraperitoneal administration)), and the head was fixed using a brain stereotaxic apparatus (ASI Instruments, Inc., NARISHIGE). After incising the head skin, holes are opened at right and left olfactory bulb regions of the skull using a dental drill (manufactured by MINITOR), and the right and left olfactory bulbs were removed by sucking them using an aspirator connected to a tip-removed oral sonde, and the head skin was stitched thereafter. In this connection, in the case of the animals for sham-operation, anesthesia, brain fixation and head skin incision were carried out in the same manner as in the animals for olfactory bulbectomy, holes are opened at right and left olfactory bulb regions of the skull and the head skin was stitched without carrying out suction removal of the olfactory bulbs. The rats after olfactory bulbectomy were put into a series of five stainless steel cages, each of which was partitioned into two parts with an acrylic board for individual rearing space, and individually reared under a dark condition. The rats were subjected to the following tests of (2) and (3).\n• (a) Sham-operation group (12 animals); • (b) Vehicle control group (12 animals); • (c) 3 mg/kg administration group (12 animals) of (2R)-2-propyloctanoic acid; • (d) 10 mg/kg administration group (12 animals) of (2R)-2-propyloctanoic acid; • (e) 10 mg/kg administration group (12 animals) of Milnacipran hydrochloride. [Drug Administration]\nAs shown below, drug solution or vehicle was administered once a day for 8 days, a total of 8 times, at a respective liquid dose of 5 mL/kg. • (a) Sham-operation group: vehicle (0.1% by volume Tween 80) aqueous solution; • (b) Vehicle control group: vehicle (0.1% by volume Tween 80) aqueous solution; • (c) 3 mg/kg administration group of (2R)-2-propyloctanoic acid: a drug solution in which (2R)-2-propyloctanoic acid was prepared to be 0.6 mg/mL with the vehicle; • (d) 10 mg/kg administration group of (2R)-2-propyloctanoic acid: a drug solution in which (2R)-2-propyloctanoic acid was prepared to be 2.0 mg/mL with the vehicle; • (e) 10 mg/kg administration group of milnacipran hydrochloride: a drug solution in which Milnacipran hydrochloride was prepared to be 2.3 mg/mL with the vehicle (Milnacipran itself is included in 2.0 mg/mL). (2) Examination of the Activity for Hyperemotional Reactivity <Evaluation Method>\nEvaluation of the hyperemotional reactivity was carried out (1) before the grouping, (2) from 1 hour to 1 hour and 10 minutes after administration of the 1 day drug administration, (3) before administration of the 7 days administration and (4) from 1 hour to 1 hour and 10 minutes after the administration (a total of 4 times), by scoring the degree of irritability once a rat in accordance with the following evaluation criteria of hyperemotional reactivity (hyperemotional score: prepared based on the method of Gomita et al. (Folia Pharmacologica Japonica, 82, 267, 1983). Additionally, all of the conditions of the evaluation were shot and recorded using a video camera (SSC-DC430, SONY) and handled as reference data."}}, "note": "Counter-ions that a name gives are not always drawn."}
{"smiles": "CCN(CC)C(=O)C1(c2ccccc2)CC1CN", "note": "(stereo not drawn) [Milnacipran hydrochloride, reference compound]", "values": [{"measurement": "Time (seconds) stayed on closed arm (mean ± S. E.)", "setting": "[1]", "result": "196.0 ± 19.8", "unit": "s"}, {"measurement": "Time (seconds) stayed on open arm (mean ± S. E.)", "setting": "[1]", "result": "72.7 ± 18.3", "unit": "s"}, {"measurement": "Hyperemotional score (mean ± S. E.), Seven days administration, After administration", "setting": "[2]; dose 10 mg/kg once a day, 1 hour to 1 hour 10 minutes after 7 days administration", "result": "7.6 ± 0.8"}, {"measurement": "Hyperemotional score (mean ± S. E.), Seven days administration, Before administration", "setting": "[2]; dose 10 mg/kg once a day, before administration of the 7 days administration", "result": "10.2 ± 1.1"}, {"measurement": "Hyperemotional score (mean ± S. E.), One day administration, After administration", "setting": "[2]; dose 10 mg/kg, 1 hour to 1 hour 10 minutes after 1 day administration", "result": "14.3 ± 1.0"}, {"measurement": "Hyperemotional score (mean ± S. E.), One day administration, Before administration", "setting": "[2]; dose 10 mg/kg, baseline before grouping, 12 animals", "result": "20.0 ± 0.0"}]}
